Columns and labels:
Assay in all cases: NCI 60 human tumor cell line screen (SRB)
Assay type in all cases: cell-based
HCC-2998 = HCC-2998 (Colon Cancer); 48 h
Source text: (§1) Representative compounds of Formula I were screened using the National Cancer Institute (NCI) screening panel, which consists of a panel of 60 different human tumor cell lines, representing leukemia [CCRF-CEM, HL-60 (TB), K-562, MOLT-4, SR], melanoma [LOX IMVI, MALME-3M, M14, SMDA-MB-435, SK-MEL-2, SK-MEL-28, SK-MEL-5, UACC-257 and UACC-62] and cancers of the lung [A549/ATCC, EKVX, HOP-62, HOP-93, NCI-H226, NCI-H23, NCI-H322M, NCI-H460], colon [COLO 205, HCT-116, HCT-15, HT29, KM12, SW-620], brain [SF-268, SF-295, SF-539, SNB-19, SNB-75, U251], ovary [IGROV1, OVCAR-3, OVCAR-4, OVCAR-5, OVCAR-8, NCI/ADR-RES, SK-OV-3], breast [MCF7, MDA-MB-231, BT-549, T-47D, MDA-MB-468], prostate [PC-3, DU-145], and renal[786-0, A498, ACHN, CAKI-1, RXF-393, SN12C, TK-10, UO-31] cancers.
(§2) After 24 h, two plates of each cell line are fixed in situ with TCA, to represent a measurement of the cell population for each cell line at the time of drug addition (Tz). Experimental drugs are solubilised in dimethyl sulfoxide at 400-fold the desired final maximum test concentration and stored frozen prior to use. At the time of drug addition, an aliquot of frozen concentrate is thawed and diluted to twice the desired final maximum test concentration with complete medium containing 50 μg/ml gentamicin. Additional four, 10-fold or ½ log serial dilutions are made to provide a total of five drug concentrations plus control. Aliquots of 100 μl of these different drug dilutions are added to the appropriate microtiter wells already containing 100 μl of medium, resulting in the required final drug concentrations.
(§3) Following drug addition, the plates are incubated for an additional 48 h at 37° C., 5% CO2, 95% air, and 100% relative humidity. For adherent cells, the assay is terminated by the addition of cold TCA (trichloroacetic acid). Cells are fixed in situ by the gentle addition of 50 μl of cold 50% (w/v) TCA (final concentration, 10% TCA) and incubated for 60 minutes at 4° C. The supernatant is discarded, and the plates are washed five times with tap water and air dried. Sulforhodamine B (SRB) solution (100 μl) at 0.4% (w/v) in 1% acetic acid is added to each well, and plates are incubated for 10 minutes at room temperature. After staining, unbound dye is removed by washing five times with 1% acetic acid and the plates are air dried. Bound stain is subsequently solubilised with 10 mM trizma base, and the absorbance is read on an automated plate reader at a wavelength of 515 nm. For suspension cells, the methodology is the same except that the assay is terminated by fixing settled cells at the bottom of the wells by gently adding 50 μl of 80% TCA (final concentration, 16% TCA). Using the seven absorbance measurements [time zero, (Tz), control growth, (C), and test growth in the presence of drug at the five concentration levels (Ti)], the percentage growth is calculated at each of the drug concentration levels. Percentage growth inhibition is calculated as: [(Ti−Tz)/(C−Tz)]×100 for concentrations in which Ti>/=Tz and [(Ti−Tz)/Tz]×100 for concentrations in which Ti<Tz.
(§4) Three dose response parameters are calculated for each experimental agent. Growth inhibition of 50% (GI50) is calculated from [(Ti−Tz)/(C−Tz)]100=50, which is the drug concentration resulting in a 50% reduction in the net protein increase (as measured by SRB staining) in control cells during the drug incubation. The drug concentration resulting in total growth inhibition (TGI) is calculated from Ti=Tz. The LC50 (concentration of drug resulting in a 50% reduction in the measured protein at the end of the drug treatment as compared to that at the beginning) indicating a net loss of cells following treatment is calculated from [(Ti−Tz)/Tz]×100=−50. Values are calculated for each of these three parameters if the level of activity is reached. However, if the effect is not reached or is exceeded, the value for that parameter is expressed as greater or less than the maximum or minimum concentration tested.

HL-60(TB) = HL-60(TB) (Leukemia); 48 h
Source text: as §1, §2, §3, §4

OVCAR-4 = OVCAR-4 (Ovarian Cancer); 48 h
Source text: as §1, §2, §3, §4

MDA-MB-231/ATCC = MDA-MB-231/ATCC (Breast Cancer); 48 h
Source text: as §1, §2, §3, §4

NCI/ADR-RES = NCI/ADR-RES (Ovarian Cancer); 48 h
Source text: as §1, §2, §3, §4

UACC-62 = UACC-62 (Melanoma); 48 h
Source text: as §1, §2, §3, §4

RPMI-8226 = RPMI-8226 (Leukemia); 48 h
Source text: as §1, §2, §3, §4

MALME-3M = MALME-3M (Melanoma); 48 h
Source text: as §1, §2, §3, §4

MCF7 = MCF7 (Breast Cancer); 48 h
Source text: as §1, §2, §3, §4

HS 578T = HS 578T (Breast Cancer); 48 h
Source text: as §1, §2, §3, §4

A549/ATCC = A549/ATCC (Non-Small Cell Lung Cancer); 48 h
Source text: as §1, §2, §3, §4

UACC-257 = UACC-257 (Melanoma); 48 h
Source text: as §1, §2, §3, §4

Compound	Log10GI50 (HCC-2998)	Log10LC50 (HCC-2998)	Log10TGI50 (HCC-2998)	Log10GI50 (OVCAR-4)	Log10TGI50 (OVCAR-4)	Log10GI50 (MDA-MB-231/ATCC)	Log10LC50 (MDA-MB-231/ATCC)	Log10TGI50 (MDA-MB-231/ATCC)	Log10GI50 (NCI/ADR-RES)	Log10LC50 (NCI/ADR-RES)	Log10TGI50 (NCI/ADR-RES)	Log10GI50 (UACC-62)	Log10LC50 (UACC-62)	Log10TGI50 (UACC-62)	Log10GI50 (RPMI-8226)	Log10LC50 (RPMI-8226)	Log10TGI50 (RPMI-8226)	Log10GI50 (MALME-3M)	Log10LC50 (MALME-3M)	Log10TGI50 (MALME-3M)	further results
C[C@]1(C(=O)[C@H](Cc2ccccc2)NC(=O)[C@H](COC(F)F)NC(=O)[C@H](COC(F)F)NC(=O)CN2CCOCC2)CO1 [Example 26, (S)-N-{(S)-1-[(S)-1-Benzyl-2-((R)-2-methyl-oxiranyl)-2-oxo-ethylcarbamoyl]-2-difluoromethoxyethyl}-3-difluoromethoxy-2-(2-morpholin-4-yl-acetylamino)-propio-namide]	−7.74	−7.20	−7.47	−7.50	−6.75	−7.52	−4.21	−6.80	−5.82	>−4.00	>−4.00	−7.35	−4.58	−6.63	−7.52	>−4.00	−7.04	−7.51	>−4.00	−6.64	Log10GI50 (HL-60(TB)): −7.45; Log10LC50 (HL-60(TB)): >−4.00; Log10TGI50 (HL-60(TB)): −6.35; Log10LC50 (OVCAR-4): >−4.00; Log10GI50 (MCF7): −7.53; Log10LC50 (MCF7): >−4.00; Log10TGI50 (MCF7): −4.89; Log10GI50 (HS 578T): −7.54; Log10LC50 (HS 578T): >−4.00; Log10TGI50 (HS 578T): −6.24; Log10GI50 (A549/ATCC): −7.41; Log10LC50 (A549/ATCC): >−4.00; Log10TGI50 (A549/ATCC): −6.13; Log10GI50 (UACC-257): −7.18; Log10LC50 (UACC-257): >−4.00; Log10TGI50 (UACC-257): −6.32
CC(C)C[C@H](NC(=O)[C@H](Cc1ccccc1)NC(=O)[C@H](COC(F)F)NC(=O)CN1CCOCC1)C(=O)[C@@]1(C)CO1 [Example 25, (2S)-2-[[(2S)-3-(difluoromethoxy)-2-[(2-morpholinoacetyl)amino]propanoyl]amino]-N-[(1S)-3-methyl-1-[(2R)-2-methyloxirane-2-carbonyl]butyl]-3-phenyl-propanamide]	−7.74	−7.20	−7.47	−7.50	−6.75	−7.52	−4.21	−6.80	−5.82	>−4.00	>−4.00	−7.35	−4.58	−6.63	−7.52	>−4.00	−7.04	−7.51	>−4.00	−6.64	Log10GI50 (HL-60(TB)): −7.45; Log10LC50 (HL-60(TB)): >−4.00; Log10TGI50 (HL-60(TB)): −6.35; Log10LC50 (OVCAR-4): >−4.00; Log10GI50 (MCF7): −7.53; Log10LC50 (MCF7): >−4.00; Log10TGI50 (MCF7): −4.89; Log10GI50 (HS 578T): −7.54; Log10LC50 (HS 578T): >−4.00; Log10TGI50 (HS 578T): −6.24; Log10GI50 (A549/ATCC): −7.41; Log10LC50 (A549/ATCC): >−4.00; Log10TGI50 (A549/ATCC): −6.13; Log10GI50 (UACC-257): −7.18; Log10LC50 (UACC-257): >−4.00; Log10TGI50 (UACC-257): −6.32
C[C@]1(C(=O)[C@H](Cc2ccccc2)NC(=O)[C@H](Cc2ccccc2)NC(=O)[C@H](COC(F)F)NC(=O)CN2CCOCC2)CO1 [Example 29]	−6.80	−6.21	−6.50	−6.98	>−4.00	−7.04	−4.44	−6.27	−5.58	>−4.00	>−4.00	−7.00	>−4.00	−6.37	−7.40	>−4.00	−6.43	−6.69	>−4.00	−6.15	Log10GI50 (MCF7): −7.38; Log10LC50 (MCF7): >−4.00; Log10TGI50 (MCF7): >−4.00; Log10GI50 (HS 578T): −7.07; Log10LC50 (HS 578T): >−4.00; Log10TGI50 (HS 578T): >−4.00; Log10GI50 (A549/ATCC): −6.68; Log10LC50 (A549/ATCC): >−4.00; Log10TGI50 (A549/ATCC): >−4.00; Log10GI50 (UACC-257): −6.81; Log10LC50 (UACC-257): >−4.00; Log10TGI50 (UACC-257): −6.00
Cc1ncc(C(=O)N[C@@H](COC(F)F)C(=O)N[C@@H](COC(F)F)C(=O)N[C@@H](Cc2ccccc2)C(=O)[C@@]2(C)CO2)s1 [Example 1, 2-methyl-thiazole-5-carboxylic acid ((S)-1-{(S)-1-[(S)-1-benzyl-2-((R)-2-methyloxiranyl)-2-oxo-ethylcarbamoyl]-2-difluoromethoxyethylcarbamoyl}-2-difluoromethoxyethyl)-amide]	−6.74	−6.15	−6.45	−6.29	>−4.00	−6.66	−4.73	−6.01	−5.11	>−4.00	−4.23	−6.68	−4.95	−5.78	−7.40	>−4.00	−4.86	−7.30	>−4.00	−6.38	Log10GI50 (HL-60(TB)): −6.56; Log10LC50 (HL-60(TB)): >−4.00; Log10TGI50 (HL-60(TB)): >−4.00; Log10LC50 (OVCAR-4): >−4.00; Log10GI50 (MCF7): −7.35; Log10LC50 (MCF7): >−4.00; Log10TGI50 (MCF7): −4.62; Log10GI50 (HS 578T): −7.33; Log10LC50 (HS 578T): >−4.00; Log10TGI50 (HS 578T): −5.44; Log10GI50 (A549/ATCC): −6.41; Log10LC50 (A549/ATCC): >−4.00; Log10TGI50 (A549/ATCC): >−4.00; Log10GI50 (UACC-257): −6.87; Log10LC50 (UACC-257): >−4.00; Log10TGI50 (UACC-257): −6.20

— patent US9441012B2, “Fluorinated epoxyketone-based compounds and uses thereof as proteasome inhibitors” (FLUORINOV PHARMA INC., priority 2012, dated 2016)
